These results are taken from US12084436B2, “Heterocyclic compound” (Takeda Pharmaceutical Company Limited, priority 2019, dated 2024).

The target of the test is T1, HDAC6 enzyme (Homo sapiens, UniProt Q9UBN7).
T1 construct: prepared by transducing full length HDAC6 gene into Sf-9 insect cells; GST; purchased SignalChem; host or cells: Sf-9 insect cells
T1 sequence (Q9UBN7 1-1215): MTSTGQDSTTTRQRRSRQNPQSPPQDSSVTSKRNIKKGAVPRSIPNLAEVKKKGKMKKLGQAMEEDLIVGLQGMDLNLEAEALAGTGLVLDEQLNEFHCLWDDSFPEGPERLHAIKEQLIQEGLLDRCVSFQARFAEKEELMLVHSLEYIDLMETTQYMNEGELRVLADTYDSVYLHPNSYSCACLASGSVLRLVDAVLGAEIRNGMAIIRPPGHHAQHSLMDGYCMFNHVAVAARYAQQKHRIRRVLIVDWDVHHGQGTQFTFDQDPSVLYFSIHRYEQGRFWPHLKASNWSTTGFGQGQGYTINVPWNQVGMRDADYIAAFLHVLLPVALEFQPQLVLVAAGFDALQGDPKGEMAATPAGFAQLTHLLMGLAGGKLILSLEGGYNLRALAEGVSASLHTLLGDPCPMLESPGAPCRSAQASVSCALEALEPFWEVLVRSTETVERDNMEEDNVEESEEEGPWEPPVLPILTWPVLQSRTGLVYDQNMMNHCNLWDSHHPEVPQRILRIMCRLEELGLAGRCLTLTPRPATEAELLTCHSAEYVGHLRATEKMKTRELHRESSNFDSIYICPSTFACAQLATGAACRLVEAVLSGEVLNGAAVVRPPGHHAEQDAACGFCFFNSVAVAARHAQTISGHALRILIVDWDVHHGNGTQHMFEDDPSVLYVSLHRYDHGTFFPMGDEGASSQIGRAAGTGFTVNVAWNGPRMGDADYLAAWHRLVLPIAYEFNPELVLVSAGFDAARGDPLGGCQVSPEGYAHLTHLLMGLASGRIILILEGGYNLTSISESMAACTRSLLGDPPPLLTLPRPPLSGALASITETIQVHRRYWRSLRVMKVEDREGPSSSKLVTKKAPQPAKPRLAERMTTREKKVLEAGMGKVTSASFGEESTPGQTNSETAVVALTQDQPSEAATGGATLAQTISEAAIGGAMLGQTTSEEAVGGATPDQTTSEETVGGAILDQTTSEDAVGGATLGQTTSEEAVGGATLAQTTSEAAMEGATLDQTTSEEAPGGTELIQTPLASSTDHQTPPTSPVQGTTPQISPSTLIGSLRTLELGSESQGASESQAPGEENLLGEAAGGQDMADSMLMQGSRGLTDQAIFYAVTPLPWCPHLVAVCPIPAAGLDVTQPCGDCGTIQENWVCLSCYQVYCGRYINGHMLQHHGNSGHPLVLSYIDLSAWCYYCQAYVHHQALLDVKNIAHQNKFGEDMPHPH
Nature of the test: HDAC6 enzyme inhibitory assay (HDAC-Glo I/II Assay kit, luminescence). Type of test: biochemical. The following applies: 10 μM test compound, wells without enzyme = 100% inhibition; for inhibition at 10 µM: read-out: HDAC6 inhibitory rate (%) (10 μM). A digest of the protocol: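 Full-length human HDAC6, GST-purified from Sf-9 cells, was preincubated with compound for 60 min at room temperature in Tris-HCl pH 7.5 buffer with glutathione and Tween-20. Substrate-developer was then added, and luminescence was read after 20 min at room temperature. Inhibition was expressed relative to no-enzyme wells, taken as 100% inhibition.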

With `O=C1c2cc(-c3nnc(C(F)F)o3)ccc2CN1Nc1ccc(F)c(Cl)c1` [Example 37c, 2-(3-chloro-4-fluoroanilino)-6-[5-(difluoromethyl)-1,3,4-oxadiazol-2-yl]-2,3-dihydro-1H-isoindol-1-one], the inhibition at 10 µM is 99%.
As for `CN1C(=O)c2cc(-c3nnc(C(F)F)o3)ccc2OC1(C)c1cccnc1` (stereo not drawn) [Example 43b, 6-[5-(difluoromethyl)-1,3,4-oxadiazol-2-yl]-2,3-dimethyl-2-(pyridin-3-yl)-2,3-dihydro-4H-1,3-benzoxazin-4-one], the inhibition at 10 µM was determined as 100%.
On to `CC(=O)N1CCC(Cn2ccnc2-c2cc(F)cc(-c3nnc(C(F)F)o3)c2)CC1` [Example 31a, 1-{4-[(2-{3-[5-(difluoromethyl)-1,3,4-oxadiazol-2-yl]-5-fluorophenyl}-1H-imidazol-1-yl)methy]piperidin-1-yl}ethan-1-one], for which the inhibition at 10 µM came to 98%.
Still for that read-out and setting: the result for `CCNC(=O)Cn1ccnc1-c1cc(F)cc(-c2nnc(C(F)F)o2)c1` [Example 32a, 2-(2-{3-[5-(difluoromethyl)-1,3,4-oxadiazol-2-yl]-5-fluorophenyl]-1H-imidazol-1-yl)-N-ethylacetamide] reads 91%; that for `Fc1cc(-c2nnc(C(F)F)o2)cc(-c2nccn2Cc2ccccc2Cl)c1` [Example 20a, 2-(3-{1-[(2-chlorophenyl)methyl]-1H-imidazol-2-yl]-5-fluorophenyl)-5-(difluoromethyl)-1,3,4-oxadiazole], 97%; that for `Fc1cc(-c2nnc(C(F)F)o2)cc(-c2nccn2Cc2ccncc2)c1` [Example 24a, 4-[(2-{3-[5-(difluoromethyl)-1,3,4-oxadiazol-2-yl]-5-fluorophenyl}-1H-imidazol-1-yl)methyl]pyridine], 98%.
Still for that read-out and setting: the result for `CCOC(=O)CN(C)N1Cc2ccc(-c3nnc(C(F)F)o3)cc2C1=O` [Example 46c, ethyl N-{6-[5-(difluoromethyl)-1,3,4-oxadiazol-2-yl]-1-oxo-1,3-dihydro-2H-isoindol-2-yl}-N-methylglycinate] reads 99%; that for `N#Cc1ccccc1Cn1ccnc1-c1cc(-c2nnc(C(F)F)o2)ccn1` [Example 79a], 99%.
The same measure, in the same setting: the result for `Cc1ccc(C2(C)Oc3ccc(-c4nnc(C(F)F)o4)cc3C(=O)N2C)cc1` (stereo not drawn) [Example 22b, 6-[5-(difluoromethyl)-1,3,4-oxadiazol-2-yl]-2,3-dimethyl-2-(4-methylphenyl)-2,3-dihydro-4H-1,3-benzoxazin-4-one] reads 100%; that for `Cc1ccc(COc2cccnc2-c2cc(F)cc(-c3nnc(C(F)F)o3)c2)cc1` [Example 9a], 79%; that for `FC(F)c1nnc(-c2ccnc(-c3nccn3Cc3cncc(Cl)c3)c2)o1` [Example 93a, 2-{1-[(5-chloropyridin-3-yl)methyl]-1H-imidazol-2-yl}-4-[5-(difluoromethyl)-1,3,4-oxadiazol-2-yl]pyridine], 100%.
As for `COC1CCCC(OC(=O)N(Cc2ccc(F)cc2)N2Cc3ccc(-c4nnc(C(F)F)o4)cc3C2=O)C1` (stereo not drawn) [Example 24c, 3-methoxycyclohexyl {6-[5-(difluoromethyl)-1,3,4-oxadiazol-2-yl]-1-oxo-1,3-dihydro-2H-isoindol-2-yl}[(4-fluorophenyl)methyl]carbamate], the inhibition at 10 µM was found to be 100%.
For `COc1cccc(Cn2ccnc2-c2cc(-c3nnc(C(F)F)o3)ccn2)c1` [Example 81a, 4-[5-(difluoromethyl)-1,3,4-oxadiazol-2-yl]-2-{1-[(3-methoxyphenyl)methyl]-1H-imidazol-2-yl}pyridine], the inhibition at 10 µM came out at 101%.
As for `C[C@@]1(c2ccc(F)cc2)Cc2ncc(-c3nnc(C(F)F)o3)cc2C(=O)N1CC(F)F` [Example 54b, (7S)-6-(2,2-difluoroethyl)-3-[5-(difluoromethyl)-1,3,4-oxadiazol-2-yl]-7-(4-fluorophenyl)-7-methyl-7,8-dihydro-1,6-naphthyridin-5(6H)-one], the inhibition at 10 µM came out at 75%.
As to `FC(F)c1nnc(-c2ccnc(-c3nccn3Cc3ccccc3)c2)o1` [Example 36a, 2-(1-benzyl-1H-imidazol-2-yl)-4-[5-(difluoromethyl)-1,3,4-oxadiazol-2-yl]pyridine], the inhibition at 10 µM came to 101%.
Take `CC(C)CN(C(=O)OC(C)(C)C)N1Cc2ccc(-c3nnc(C(F)F)o3)cc2C1=O` [Example 5c, tert-butyl {6-[5-(difluoromethyl)-1,3,4-oxadiazol-2-yl]-1-oxo-1,3-dihydro-2H-isoindol-2-yl}(2-methylpropyl)carbamate]: the inhibition at 10 µM stood at 99%.
Turning to `CC1(c2ccc(F)cc2)Oc2ccc(-c3nnc(C(F)F)o3)cc2C(=O)N1CC1CC1` (stereo not drawn) [Example 47b, 3-(cyclopropylmethyl)-6-[5-(difluoromethyl)-1,3,4-oxadiazol-2-yl]-2-(4-fluorophenyl)-2-methyl-2,3-dihydro-4H-1,3-benzoxazin-4-one], the inhibition at 10 µM turned out to be 101%.
`O=C1c2cc(-c3nnc(C(F)F)o3)ccc2CN(c2ccc(F)cc2)N1CC(F)F` [Example 48b, 2-(2,2-difluoroethyl)-7-[5-(difluoromethyl)-1,3,4-oxadiazol-2-yl]-3-(4-fluorophenyl)-3,4-dihydrophthalazin-1(2H)-one]: the inhibition at 10 µM amounted to 101%.
On to `CC1(c2ccc(F)cc2)Oc2ccc(-c3nnc(C(F)F)o3)cc2C(=O)N1CC(F)F` (stereo not drawn) [Example 56b, 3-(2,2-difluoroethyl)-6-[5-(difluoromethyl)-1,3,4-oxadiazol-2-yl]-2-(4-fluorophenyl)-2-methyl-2,3-dihydro-4H-1,3-benzoxazin-4-one], for which the inhibition at 10 µM is 100%.
`Fc1cc(-c2nnc(C(F)F)o2)cc(-c2ncccc2OCC2CCOCC2)c1` [Example 7a, 2-{3-[5-(difluoromethyl)-1,3,4-oxadiazol-2-yl]-5-fluorophenyl]-3-[(oxan-4-yl)methoxy]pyridine]: the inhibition at 10 µM stood at 100%.
On the same count and under the same terms, to `O=C1c2cc(-c3nnc(C(F)F)o3)ccc2OCN1Cc1ccccc1` [Example 5b, 3-benzyl-6-[5-(difluoromethyl)-1,3,4-oxadiazol-2-yl]-2,3-dihydro-4H-1,3-benzoxazin-4-one] belongs 71%.
Still for that read-out and setting: the result for `O=C1c2cc(-c3nnc(C(F)F)o3)ccc2CN1N(Cc1ccc(F)cc1)Cc1ccc(F)cc1` [Example 7c, 2-{bis[(4-fluorophenyl)methyl]amino}-6-[5-(difluoromethyl)-1,3,4-oxadiazol-2-yl]-2,3-dihydro-1H-isoindol-1-one] reads 100%.
For the molecule `Fc1cc(-c2nnc(C(F)F)o2)cc(-c2nccn2Cc2cccc(C(F)(F)F)c2)c1` [Example 67a], the inhibition at 10 µM came out at 99%.
Turning to `CN(CC1CCC(F)(F)CC1)N1Cc2ccc(-c3nnc(C(F)F)o3)cc2C1=O` [Example 62c, 2-{[(4,4-difluorocyclohexyl)methyl](methyl)amino}-6-[5-(difluoromethyl)-1,3,4-oxadiazol-2-yl]-2,3-dihydro-1H-isoindol-1-one], the inhibition at 10 µM turned out to be 100%.
Consider `O=C1NN(c2ccc(F)c(Cl)c2)Cc2ncc(-c3nnc(C(F)F)o3)cc21` [Example 35b, 7-(3-chloro-4-fluorophenyl)-3-[5-(difluoromethyl)-1,3,4-oxadiazol-2-yl]-7,8-dihydropyrido[2,3-d]pyridazin-5(6H)-one], for which the inhibition at 10 µM is 100%.
Consider `CN1C(=O)c2cc(-c3nnc(C(F)F)o3)ccc2CC1(C)c1ccc(F)cc1` (single isomer, unassigned; isomer 2) [Example 24b, 7-[5-(difluoromethyl)-1,3,4-oxadiazol-2-yl]-3-(4-fluorophenyl)-2,3-dimethyl-3,4-dihydroisoquinolin-1(2H)-one (optical isomer 2)], for which the “HDAC6 inhibitory rate (%) (10 μM)” value (10 µM) is given as 99%.
As to `O=C1c2cc(-c3nnc(C(F)F)o3)ccc2CN1NCC(F)(F)F` [Example 31c, 6-[5-(difluoromethyl)-1,3,4-oxadiazol-2-yl]-2-[(2,2,2-trifluoroethyl)amino]-2,3-dihydro-1H-isoindol-1-one], the inhibition at 10 µM came out at 90%.
